Data reported in ChEMBL document CHEMBL4616593, “Formaldehyde-activated WEHI-150 induces DNA interstrand crosslinks with unique structural features” (Bioorg Med Chem, 2020).
Activity calls are given as the source filed them. The rule behind the calls is not given here.

Assays:
Type in all cases: nucleic-acid assay
[1] = test system: DNA; assay: Stabilization of dsBE17 oligonucleotide (unknown origin) assessed as drug-DNA adduct formation at 5 to 50 uM incubated for 4 hrs in presence of formaldehyde using [gamma-32P]ATP by phosphorimaging analysis
[2] = test system: DNA; assay: Stabilization of [32P]-labelled dsDNA (unknown origin) assessed as drug-DNA adduct formation by measuring adduct half life incubated for 12 hrs in presence of formaldehyde by phosphorimaging analysis
[3] = test system: DNA; assay: Binding affinity to dsBE45 oligonucleotide (unknown origin) assessed as drug-DNA adduct formation at 5 to 50 uM incubated for 4 hrs in presence of formaldehyde using [gamma-32P]ATP by phosphorimaging analysis
[4] = test system: DNA; assay: Stabilization of [32P]-labelled dsDNA (unknown origin) assessed as drug-DNA adduct formation at 5 uM in presence of formaldehyde incubated for 12 hrs by phosphorimaging analysis relative to control
[5] = test system: DNA; assay: Stabilization of dsBE15 oligonucleotide (unknown origin) assessed as drug-DNA adduct formation at 5 to 50 uM incubated for 4 hrs in presence of formaldehyde using [gamma-32P]ATP by phosphorimaging analysis
[6] = test system: DNA; assay: Stabilization of dsBE12 oligonucleotide (unknown origin) assessed as drug-DNA adduct formation at 5 to 50 uM incubated for 4 hrs in presence of formaldehyde using [gamma-32P]ATP by phosphorimaging analysis relative to control
[7] = test system: DNA; assay: Stabilization of [32P]-labelled dsDNA (unknown origin) assessed as drug-DNA adduct formation at 1 uM to 24 uM incubated for 12 hrs in presence of formaldehyde by phosphorimaging analysis
[8] = test system: DNA; assay: Stabilization of dsBE67 oligonucleotide (unknown origin) assessed as drug-DNA adduct formation at 5 to 50 uM incubated for 4 hrs in presence of formaldehyde using [gamma-32P]ATP by phosphorimaging analysis relative to control
[9] = test system: DNA; assay: Induction of transcriptional blockage of 512 bp DNA fragment (unknown origin) at 2.5 to 10 uM incubated for 4 hrs in presence of formaldehyde using [alpha-32P]UTP by phosphorimaging analysis
[10] = test system: DNA; assay: Stabilization of [32P]-labelled dsDNA (unknown origin) assessed as drug-DNA adduct formation by measuring residual dsDNA level at 6 uM measured after 16 hrs in presence of formaldehyde by phosphorimaging analysis relative to control
[11] = test system: DNA; assay: Stabilization of [32P]-labelled dsDNA (unknown origin) assessed as drug-DNA adduct formation incubated for 12 hrs in presence of formaldehyde by phosphorimaging analysis
[12] = test system: DNA; assay: Stabilization of [32P]-labelled dsDNA (unknown origin) assessed as drug-DNA adduct formation by measuring adduct half life at 10 uM in presence of formaldehyde by phosphorimaging analysis
[13] = test system: DNA; assay: Stabilization of [32P]-labelled dsDNA (unknown origin) assessed as drug-DNA adduct formation by measuring residual dsDNA level at 2.5 uM measured after 16 hrs in presence of formaldehyde by phosphorimaging analysis relative to control
[14] = test system: DNA; assay: Induction of transcriptional blockage of 512 bp DNA fragment (unknown origin) at 2.5 uM incubated for 4 hrs in presence of formaldehyde using [alpha-32P]UTP by phosphorimaging analysis
[15] = test system: DNA; assay: Stabilization of dsBE15 oligonucleotide (unknown origin) assessed as drug-DNA adduct formation at 50 uM incubated for 4 hrs in presence of formaldehyde using [gamma-32P]ATP by phosphorimaging analysis relative to control
[16] = test system: DNA; assay: Stabilization of [32P]-labelled dsDNA (unknown origin) assessed as drug-DNA adduct formation by measuring increase in retardation of dsDNA migration on gel at >3 uM incubated for 12 hrs in presence of formaldehyde by phosphorimaging analysis
[17] = test system: DNA; assay: Induction of transcriptional blockage of 512 bp DNA fragment (unknown origin) assessed as loss of full length transcript comprising 379 nucleotide at 10 uM incubated for 4 hrs in presence of formaldehyde using [alpha-32P]UTP by phosphorimaging analysis relative to control
[18] = test system: DNA; assay: Induction of transcriptional blockage of 512 bp DNA fragment (unknown origin) assessed as loss of full length transcript comprising 379 nucleotide at 5 uM incubated for 4 hrs in presence of formaldehyde using [alpha-32P]UTP by phosphorimaging analysis
[19] = test system: DNA; assay: Stabilization of [32P]-labelled dsDNA (unknown origin) assessed as drug-DNA adduct formation by measuring residual dsDNA level at 6 uM measured after 10 days in presence of formaldehyde by phosphorimaging analysis relative to control

Activity [1]	T1/2 [2]	Activity [3]	Activity [4]	Activity [5]	Activity [6]	Activity [7]	Activity [8]	Activity [9]	Activity [10]	Activity [11]	T1/2 [12]	Activity [13]	Activity [14]	Activity [15]	Activity [16]	Activity [17]	Activity [18]	Activity [19]	SMILES
Active	2.3 h	inactive	30%	inactive	30%	Active	< 55%	–	–	–	–	–	–	–	–	–	–	–	NCCNc1ccc(NCCN)c2c1C(=O)c1c(O)ccc(O)c1C2=O
Active	10 h	–	25%	Active	Active	–	Active	Active	20%	Dose-dependent effect	–	–	–	–	–	–	–	–	NCCNCCNc1ccc(F)c2c1C(=O)c1c(O)ccc(O)c1C2=O
Active	24 h	inactive	50%	inactive	inactive	Active	10%	–	–	–	27 h	–	–	–	–	–	–	–	NCCCCCNc1ccc(F)c2c1C(=O)c1c(O)ccc(O)c1C2=O
–	–	–	< 1%	–	–	inactive	–	–	–	–	–	–	–	–	–	–	–	–	NCCCCCNc1ccc(F)c2c1C(=O)c1ccncc1C2=O
Active	12.5 h	Active	90 to 100%	–	< 80%	–	Active	–	–	Dose-dependent effect	–	20%	Active	> 75%	Active	100%	Active	–	NCCNCCNc1ccc(NCCNCCN)c2c1C(=O)c1c(O)ccc(O)c1C2=O
–	–	–	< 2%	–	–	inactive	–	–	–	–	–	–	–	–	–	–	–	–	NCCCCCNc1ccc(NCCCCCN)c2c1C(=O)c1ccncc1C2=O
Active	53 h	inactive	40%	inactive	20%	Active	30%	–	–	–	–	–	–	–	–	–	–	17%	NCCCCCNc1ccc(NCCCCCN)c2c1C(=O)c1c(O)ccc(O)c1C2=O
–	0.42 h	–	5%	–	Active	–	–	–	–	–	–	–	–	–	–	–	–	–	O=C1c2c(O)ccc(O)c2C(=O)c2c(NCCNCCO)ccc(NCCNCCO)c21
